According to patent US20100227356A1, “METHODS FOR ASSESSING EFFECTS ON SKELETAL GROWTH” (priority 2008, published 2010):

Tested on: neonatal limb culture
Assay: X-ray imaging of neonatal mouse hind limb organ culture (effect of bisphosphonates on bone density)
Assay type: cell-based, Swiss albino mouse
Details: 1 mM pamidronate in culture medium (well A) vs control (well B); neonatal limb in culture for 40 hours; FIG. 3
Excerpt: The method of the invention may be used to monitor the dynamic growth of an articulated skeletal […] by capturing a series of images overtime. In this example, an articulated lower portion (hind limb) of a limb of a neonatal, day-old Swiss albino mouse was removed and cultured in a well plate. The limb was scraped with a scalpel to abrade any skin and flesh sufficiently to allow an organ culture medium to reach the skeletal members. The scraped limb was superficially embedded in 1% agarose. The medium used for culture was 4 ml of minimum essential medium (Delbecco's Modified Eagle Medium), supplemented with 1 mM β glycerophosphate, ascorbic acid, 0.2% bovine serum albumin and antibiotics. The antibiotics contained 100 units/ml penicillin, and 100 μg/ml streptomycin. The skeletal members of the limbs continued to grow within the cultures and were imaged with X-rays (Time-Lapse-3 hrs; 11 to […] using a multi-modal system as previously described). Bone growth and mineral deposition could be measured, as could X-ray and column densities. Because the limb was articulated, the growth of individual skeletal members was influenced by neighboring members, just as in the case of growth in a living animal. The analytical X-ray imaging methodology according to the invention allows measurement of the growth of skeletal members of a neonatal mouse limb grown in vitro in organ culture. […]

NCCC(O)(P(=O)(O)O)P(=O)(O)O [pamidronate, Pamidronate]
bone density and size versus control (X-ray images): differences in bone density and size are observable
